Where a name gives a salt, the structure may show the parent alone. Read-outs that look alike come from different tables or passages of the source.
Assays:
rat TAAR1 = rat TAAR1 (Rattus norvegicus (Rat), UniProt Q923Y9); test: Radioligand binding assay on rat TAAR1
Method in brief: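 Membranes from HEK293 cells stably expressing rat TAAR1, with Kd checked per batch by saturation. Competition with ³H-(S)-4-[(ethyl-phenyl-amino)-methyl]-4,5-dihydro-oxazol-2-ylamine, compounds 10 pM–10 μM in duplicate, 1 hr at 4 °C. Filtration then scintillation counting; nonspecific binding defined with 10 μM unlabeled ligand.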

mouse TAAR1 = mouse TAAR1 (Mus musculus (Mouse), UniProt Q923Y8); test: Radioligand binding assay on mouse TAAR1
Chain of mouse TAAR1 (Q923Y8 whole entry): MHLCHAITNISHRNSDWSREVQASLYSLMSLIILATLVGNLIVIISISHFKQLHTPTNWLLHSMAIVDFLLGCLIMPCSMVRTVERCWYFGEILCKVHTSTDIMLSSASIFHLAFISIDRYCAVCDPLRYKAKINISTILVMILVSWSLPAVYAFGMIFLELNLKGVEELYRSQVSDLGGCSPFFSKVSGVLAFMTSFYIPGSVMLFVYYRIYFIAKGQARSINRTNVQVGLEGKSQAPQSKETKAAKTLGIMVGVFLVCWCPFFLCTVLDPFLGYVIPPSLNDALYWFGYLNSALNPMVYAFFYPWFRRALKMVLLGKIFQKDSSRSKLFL
Method in brief: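 Membranes were from HEK293 cells stably expressing mouse TAAR1. Compounds from 10 pM to 10 μM, in duplicate, competed with [3H]-(S)-4-[(ethyl-phenyl-amino)-methyl]-4,5-dihydro-oxazol-2-ylamine for 1 h at 4 °C. Nonspecific binding was defined with 10 μM unlabelled ligand, and bound radioactivity was read by filtration and scintillation.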

[1] = rat TAAR1, HEK-293 membranes, second value of cell mouse/rat, read-out: Ki (μM) rat
[2] = mouse TAAR1, HEK-293 membranes, first value of cell mouse/rat, read-out: Ki (μM) mouse

Chain of rat TAAR1 (Q923Y9 whole entry): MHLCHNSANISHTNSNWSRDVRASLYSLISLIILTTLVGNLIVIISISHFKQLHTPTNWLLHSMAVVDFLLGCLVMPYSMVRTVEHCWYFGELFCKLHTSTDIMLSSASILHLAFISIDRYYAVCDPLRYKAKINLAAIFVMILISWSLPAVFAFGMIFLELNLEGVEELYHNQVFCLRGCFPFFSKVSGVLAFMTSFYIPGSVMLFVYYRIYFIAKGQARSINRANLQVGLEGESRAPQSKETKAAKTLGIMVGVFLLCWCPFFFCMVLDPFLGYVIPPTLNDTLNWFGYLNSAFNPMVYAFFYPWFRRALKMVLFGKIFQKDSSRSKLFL

SMILES	Ki (rat TAAR1; [1]) [µM]	Ki (mouse TAAR1; [2]) [µM]	also measured
O=C(Nc1ccc(C2CNCCO2)cc1)c1ccc(OCC(F)(F)F)nc1 (racemic) [Example 222, (RS)—N-(4-(Morpholin-2-yl)phenyl)-6-(2,2,2-trifluoroethoxy)nicotinamide hydrochloride]	–	–	Ki (rat TAAR1; read-out: Ki (μM) rat): 0.0033 µM; Ki (mouse TAAR1; read-out: Ki (μM) mouse): 0.0037 µM
O=C(Nc1ccc(C2CCNC2)cc1)Oc1ccccc1 (racemic) [Example 11, (RS)-(4-Pyrrolidin-3-yl-phenyl)-carbamic acid phenyl ester hydrochloride]	–	–	Ki (rat TAAR1): 0.0315 µM; Ki (mouse TAAR1): 0.0065 µM
O=C(Nc1ccc(C2CCCNC2)cc1)c1ccc(Cl)c(Cl)c1 (racemic) [Example 96, (RS)-3,4-Dichloro-N-(4-piperidin-3-yl-phenyl)-benzamide hydrochloride]	0.0067	0.0016	–
O=C(Nc1ccc(C2CCNC2)cc1)c1ccccc1 (racemic) [Example 13, (RS)—N-(4-Pyrrolidin-3-yl-phenyl)-benzamide hydrochloride]	0.0995	0.008	–
O=C(Nc1ccc([C@@H]2CNC[C@H]2O)cc1)c1ccc(Cl)cc1 (racemic) [Example 63, 4-Chloro-N-[4-((3RS,4SR)-4-hydroxy-pyrrolidin-3-yl)-phenyl]-benzamide hydrochloride]	0.174	0.0837	–
O=C(Nc1ccc(C2CCNC2)cc1)Nc1ccc(C(F)(F)F)cc1 (racemic) [Example 27, (RS)-1-(4-Pyrrolidin-3-yl-phenyl)-3-(4-trifluoromethyl-phenyl)-urea hydrochloride]	0.0015	0.0013	–
O=C(Nc1ccc(C2CNCCO2)cc1)NC1CCCCC1 (racemic) [Example 307, (RS)-1-cyclohexyl-3-(4-(morpholin-2-yl)phenyl)urea hydrochloride]	0.0305	0.0778	–
O=C(Nc1ccc(C2CCNC2)cc1)OC1CCC(F)(F)CC1 (racemic) [Example 45, (RS)-(4-Pyrrolidin-3-yl-phenyl)-carbamic acid 4,4-difluoro-cyclohexyl ester]	0.0077	0.0131	–

Source: patent US9452980B2, “Substituted benzamides” (Hoffmann-La Roche Inc., priority 2009, dated 2016)
